Data published in patent US20180185801A1, “AMPHOTERIC ESTER SULFONATES” (Eastman Chemical Company, priority 2014, published 2018).
Where two headings read alike, the source gives them in different places.

How the values were obtained:
[1] = Critical micelle concentration, fluorimetric determination with DPH dye; assay type: physicochemical
Protocol: The critical micelle concentration (CMC) was also determined for each compound. The CMC is the concentration of surfactant above which micelles spontaneously form. CMC is an important characteristic of a surfactant. At surfactant concentrations below the CMC, surface tension varies widely with surfactant concentration. At concentrations above the CMC, surface tension remains fairly constant. A lower CMC indicates less surfactant is needed to saturate interfaces and form micelles. Typical CMC values are less than 1 weight percent (10,000 ppm).
The fluorimetric determination of CMC described by Chattopadhyay and London (Analytical Biochemistry, Vol. 139, pp. 408-412 (1984)) was used to obtain the critical micelle concentrations found in Table 3 below. This method employs the fluorescent dye 1,6-diphenyl-1,3,5-hexatriene (DPH) in a solution of the surface-active agent. The analysis is based on differences in fluorescence upon incorporation of the dye into the interior of the micelles. As the solution exceeds CMC, a large increase in fluorescence intensity is observed.

[2] = Foaming properties, ASTM 1173-07 foam height test; assay type: physicochemical
Text: The Standard Test Method for Foaming Properties of Surface-Active Agents (ASTM 1173-07) was used to determine the foaming properties of the ester sulfonates 1 described herein. This method generates foam under low-agitation conditions and is generally used for moderate- and high-foam surfactants. This test gathers data on initial foam height and foam decay.
Foam decay provides information on foam stability.
The apparatus for carrying out this test includes a jacketed column and a pipet. The jacketed column serves as a receiver, while the pipet delivers the surface-active solution. Solutions of each surface-active agent were prepared. The amphoteric ester sulphonate solution to be tested was added to the receiver (50 mL) and to the pipet (200 mL). The pipet was positioned above the receiver and opened. As the solution fell and made contact with the solution in the receiver, foam was generated. When the pipet was empty, the time was noted and an initial foam height was recorded. The foam height was recorded each minute for five minutes. Exact size specifications for the glassware can be found in ASTM 1173-07. The foam height results for each ester sulfonate 1 and representative standards are listed below in Tables 1 (0.1% concentration) and 2 (1% concentration).

[3] = buffer, pH 4.5
Protocol: The resulting mixture was placed in a 50° C. oven. Samples were taken periodically and analyzed for the amount of 3-(lauroyloxypropyldimethylammonio)-2-hydroxypropanesulfonate remaining by quantitative HPLC.
Samples were taken periodically and analyzed for the amount of 3-(cocoyloxypropyldimethylammonio)acetate remaining by quantitative HPLC.

Q: With `CCCCCCCCCCCC(=O)OC(C)CC[N+](C)(C)CC(O)CS(=O)(=O)[O-]` (centres unmarked) [Example 27, 3-(3-(lauroyloxy)-1-butyldimethylammonio-1-yl)-2-hydroxypropanesulfonate] as the compound, how does the “CMC” value [1] read?
A: 0.060 mM

Q: What about the “CMC (ppm)” value [1] of the same compound?
A: 26.4 ppm

Q: What about the “Foam height (cm) at time t (min)” value ([2]; 1 g/L (0.1 weight %), t = 0 min) of the same compound?
A: 16.5 cm

Q: And the “Foam height (cm) at time t (min)” value ([2]; 1 g/L (0.1 weight %), t = 1 min)?
A: 16.0 cm

Q: And the “Foam height (cm) at time t (min)” value ([2]; 1 g/L (0.1 weight %), t = 2 min)?
A: 15.5 cm

Q: And the “Foam height (cm) at time t (min)” value ([2]; 1 g/L (0.1 weight %), t = 3 min)?
A: 15.5 cm

Q: What about the “Foam height (cm) at time t (min)” value ([2]; 1 g/L (0.1 weight %), t = 4 min) of the same compound?
A: 15.5 cm

Q: And the “Foam height (cm) at time t (min)” value ([2]; 1 g/L (0.1 weight %), t = 5 min)?
A: 15.0 cm

Q: What about the “Foam height (cm) at time t (min)” value ([2]; 10 g/L (1.0 weight %), t = 0 min) of the same compound?
A: 17.5 cm

Q: And the “Foam height (cm) at time t (min)” value ([2]; 10 g/L (1.0 weight %), t = 1 min)?
A: 17.0 cm

Q: And the “Foam height (cm) at time t (min)” value ([2]; 10 g/L (1.0 weight %), t = 2 min)?
A: 17.0 cm

Q: And the “Foam height (cm) at time t (min)” value ([2]; 10 g/L (1.0 weight %), t = 3 min)?
A: 16.5 cm

Q: And the “Foam height (cm) at time t (min)” value ([2]; 10 g/L (1.0 weight %), t = 4 min)?
A: 16.0 cm

Q: And the “Foam height (cm) at time t (min)” value ([2]; 10 g/L (1.0 weight %), t = 5 min)?
A: 15.5 cm

Q: Which “Percent Amphoteric Remaining” value ([3]; 0 h) does the source give for `CCCCCCCCCCCC(=O)OCCC[N+](C)(C)CC(O)CS(=O)(=O)[O-]` (centres unmarked) [Example 31, 3-(lauroyloxypropyldimethylammonio)-2-hydroxypropanesulfonate] here?
A: 100%

Q: What about the “Percent Amphoteric Remaining” value ([3]; 336 h) of the same compound?
A: 98%

Q: What about the “Percent Amphoteric Remaining” value ([3]; 1008 h) of the same compound?
A: 98%

Q: What about the “Percent Amphoteric Remaining” value ([3]; 1344 h) of the same compound?
A: 94%

Q: And the “Percent Amphoteric Remaining” value ([3]; 2016 h)?
A: 95%

Q: Which “CMC” value [1] does the source give for `CCCCCCCCCCCCOS(=O)(=O)O.N` [ammonium lauryl sulfate] here?
A: 1.38 mM

Q: What about the “CMC (ppm)” value [1] of the same compound?
A: 392 ppm

Q: Which results are given for `CCCCCCCCCCCCOS(=O)(=O)[O-].[Na+]` [sodium lauryl sulfate]?
A: CMC [1]: 8.27 mM; CMC (ppm) [1]: 2386 ppm
